In patent US20160050895A1, “TRANSGENIC NON-HUMAN ORGANISMS WITH NON-FUNCTIONAL TSPO GENES” (AUSTRALIAN NUCLEAR SCIENCE AND TECHNOLOGY ORGANIZATION, priority 2013, published 2016):

Legend:
[1] = target: T1, TSPO (Mus musculus, UniProt P50637); experiment: Receptor film autoradiography of tissue sections with [3H]PK11195 and [125I]CLINDE; format: binding; parameters: Snap-frozen tissues were sectioned at 20 μm in a cryostat; from tissue; host or cells: mouse organ sections (brain, retina/eye, heart, adrenal, kidney, testis, spleen), C57BL/6 background; conditions: 10 μM unlabelled ligand; tissue sections from TSPO+/+ and TSPO+/- mice
Protocol: Snap-frozen tissues were sectioned at 20 μm in a cryostat, thaw mounted on poly-L-lysine-coated slides and stored at −80° C. until day of experiment. On the day of the experiment, slides were thawed at room temperature and air dried with a cool stream of air. Total and non-specific binding were determined by incubation with 1 nM of 3H-PK11195 with or without the presence of 3 μM of PK11195 in 130 mM TRIS-HCl buffer (pH 7.4) at room temperature for 20 minutes. Following incubation, the slides were briefly dipped twice in 130 mM TRIS-HCl buffer, washed twice for 5 minutes in fresh 130 mM TRIS-HCl at room temperature. The slides were finally briefly rinsed 3 times in chilled distilled H2O, dried under a cool stream of air and allowed to air dried overnight. Sections were exposed to Kodak BioMax MR film along with tritium microscales with known activity concentrations in X-ray film cassettes. Films were developed after 33 days and digitized using a GS800 Calibrated Densitometer (Bio-Rad, Hercules, Calif., USA). Images were analysed with Quantity One imaging analysis program (Bio-Rad, Hercules, Calif. USA); to assess the level of 3H-PK11195 binding, regions of interest were drawn over the tissue and an average optical density/mm^2 was calculated. Data obtained from an individual film, subject to interfilm variations, were normalized against other films through the optical density oftritium microscales.
The organs including brain, retina, heart, kidney and testes used for film autoradiography were dissected from wild-type (TSPO^+/+), heterozygous (TSPO^+/−), and homozygous (TSPO^−/−) mice and snap-frozen in liquid nitrogen. Cryostat organ sections at 18 μm were placed onto superfrost slides (Menzel-Glaser, Braunschweig, Germany) and stored in the dark at −20° C. for no longer than 1 week before the experiment. […] Tritium standards (Amersham Biosciences, Uppsala, Sweden) co-exposed with the organ sections on each Hyperfilm-^3H (Kodak Film) at 4° C. for 60 days, were used to quantify the autoradiographically measured binding. The hyperfilm was developed using Kodak GBX developer and fixer (Sigma Aldrich, St. Louis, Mo., U.S.A.). The hyperfilm was air-dried overnight before being scanned using the ArtixScan 1800f flatbed scanner (Microtek, Hsinchu, Taiwan), with greyscale using a magnification of 400% and an optical resolution of 2400 pixels per inch. No pre-scanning manipulation or filter was applied.
(§1) Tissue sections from TSPO^+/+, TSPO^+/− and TSPO^−/− mice were incubated at room temperature for 20 min in 170 mM Tris-HCl pH 7.4 containing 1 nM [^3H]PK11195 (specific activity 84 Ci/mmol; Perkin Elmer, Waltham, Mass., USA), washed twice for 5 min in 170 mM Tris-HCl, rinsed with 3 dips in ice-cold MilliQ H2O, and dried. […] Displacement binding was carried out in the presence of PK11195 (10 μM), CLINDE (10 μM) and PBR-11 (10 μM).

[2] = system: TSPO; experiment: Radioligand membrane saturation binding with 3H-PK11195; parameters: species or system mouse; conditions: renal tissue samples; TSPO knock-out mice
Protocol: Tissue samples were homogenised with T25 digital Ultra-Turrax homogenizer (Ika, Wilmington, N.C., USA) at speed setting 5 or 20000 rpm in approximately 45 mL of ice-cold TRIS buffer (pH 7.4), collected by centrifugation at 48000 g and the supernatant was then discarded. The procedure was then immediately repeated, this acts as an extra wash step to remove any soluble interfering substances to radioligand binding (Byland et al. 1993). Following the second centrifugation and removal ofsupernatant the samples were resuspended in approximately 50 volumes of ice-cold TRIS buffer (pH 7.4). Samples were aliquoted stored in −80° C. until required.
For TSPO knock-out mice studies, radioligand binding was performed using 3H-PK11195 racemate across a range of concentrations (FIG. 4). PK11195 is a TSPO specific probe. Total and non-specific binding was determined through 8 concentrations of 3H-PK11195 ranging from 0.56 nM to 20 nM. Non-specific binding was determined by the addition of 5 μM PK11195 to all concentrations of 3H-PK11195. […]
Organs were homogenised, washed twice in ice-cold 50 mM Tris-HCl (pH 7.4) by centrifugation at 48000×g, resuspended in 50 volumes of ice-cold 50 mM Tris-HCl, and protein concentration was determined using a BCA protein assay kit (Thermo Fisher Scientific). […] Non-specific binding was determined with 5 μM PK11195. […]

[3] = system: TSPO; experiment: Film autoradiography of brain sections after facial nerve axotomy; format: binding, mouse; conditions: homozygous (TSPO-/-) mice
Description: Procedures for facial nerve axotomy were approved by the animal ethics committee at the University of Sydney. Animals were anaesthetised using Isoflurane anaesthesia. Animals were monitored for a combination of respiration, heart rate, oxygen saturation and temperature during procedures using a variety of monitoring equipment to ensure anaesthetic depth. The surgical process commenced when foot-pad or plantar reflex could no longer be elicited. The fur on the ipsilateral (right) side of the neck was shaved from the ear downwards, and the skin cleaned using 70% ethanol. A small incision (0.5-0.7 cm in length) overlying the musculature covering the stylomastoid foramen was made. The facial nerve was identified, isolated and then transected completely. The skin of incision was closed with heal-glue. […] The animals were euthanized with CO2 3 days after the axotomy and brain tissue, including facial nerve nuclei in the brain stem and cerebellum, was immediately dissected, snap-frozen in liquid nitrogen, and then stored in −80° C. freezer until the cryostat section.
A small incision (0.5-0.7 cm) in the skin 0.5 cm dorsal and lateral to the ear was made and the facial nerve transected under an operating microscope. The incision was closed with 3M™ Vetbond™ Tissue Adhesive (St. Paul, Minn., USA). […] Mice were monitored carefully and euthanized with CO2 three days after the operation. Brains were dissected, placed in OCT, transferred to liquid nitrogen, and stored at −80° C. until cryo-sectioning.
as §1

[4] = system: TSPO; experiment: In vivo PET/CT imaging with [18F]PBR111; parameters: species or system mouse
Protocol: (§2) PET scans of test mice were performed using a small-animal Inveon PET/CT scanner (Siemens, Knoxville, Tenn., USA). Before scanning, the mice were anesthetized with 5% (v/v) isoflurane and positioned in the PET/CT scanner. The isoflurane level was maintained 1-2% thereafter. The body temperature was maintained with a feedback regulated heating pad and physiologic parameters (respiration and body temperature) were monitored (BioVet; m2m Imaging Corp.) for the entire scanning period. Lacri-lube (Allergan) was placed in the mouse's eyes to prevent drying while the mouse was anesthetized. The PET scans commenced simultaneously with the tail vein injection of [^18F]PBR111 (8-18 MBq/100 μL, 0.2 nmol). After 40 min of imaging, PBR111 (1 mg/kg in 2% acetic acid-saline) was injected via tail vein to determine the non-specific accumulation in organs and imaged for further 10 minutes. Upon completion of PET scanning, mice were CT scanned for 10 minutes for anatomical information. At the end of the study the mice were euthanized immediately after imaging by cervical dislocation while the animal was still fully anaesthetised.
(§3) Mice, anaesthetised (5% (v/v) isoflurane and maintained at 1-2%, were scanned using a small-animal Invcon PET/CT scanner (Siemens, Knoxville, Tenn., USA) according to methods described previously (Disselhorst, J. A. et al. Image-quality assessment for several positron emitters using the NEMA NU 4-2008 standards in the Siemens Inveon small-animal PET scanner. J Nucl Med 51, 610-617, doi:10.2967/jnumed.109.068858 (2010); Mattner, F. et al. Central nervous system expression and PET imaging of the translocator protein in relapsing-remitting experimental autoimmune encephalomyelitis. J Nucl Med 54, 291-298, doi: 10.2967/jnumed.112.108894 (2013)). Body temperature was maintained with a feedback regulated heating pad and respiration monitored (BioVet; m2m Imaging Corp, Cleveland, Ohio, USA). Scans started with the tail vein injection of [^18F]PBR111 (8-18 MBq/100 μL, […]). After 40 min of imaging, PBR111 (1 mg/kg in 2% acetic acid-saline) was injected to determine non-specific accumulation in organs and imaged for 10 minutes. Then, mice underwent a 10-min CT-scan for anatomical information. All PET data were corrected, normalised and reconstructed with an OSEM3D-MAP algorithm to produced PET volumes of activity concentration (kBq/ml).

[5] = target: T1, TSPO; experiment: In vivo PET/CT imaging with [18F]PBR111; parameters: from tissue; host or cells: organs of living mice (adrenal gland, kidney, heart, liver, lung, brain)
Protocol: as §2, §3

## CCN(CC)C(=O)Cc1c(-c2ccc(I)cc2)nc2ccc(Cl)cn12 [CLINDE]
[1]
  competitive binding: displacement of specific binding of [125I]CLINDE and [3H]PK11195 by unlabelled ligand: displaced

## CC[C@@H](C)N(C)C(=O)c1cc2ccccc2c(-c2ccccc2Cl)n1 [PK11195, 1-(2-chlorophenyl)-N-methyl-N-(1-r-methylpropyl)-3-isoquinolinecarboxamide]
[2]
  binding of the TSPO-selective probe PK11195: no binding
[3]
  intensity of PK11195 binding in the cerebellum: the same as the surrounding background
[1]
  competitive binding: displacement of specific binding of [125I]CLINDE and [3H]PK11195 by unlabelled ligand: displaced

## CCN(CC)C(=O)Cc1c(-c2ccc(OCCC[18F])cc2)nc2ccc(Cl)cn12 [[^18F]PBR111]
[4]; TSPO knock-out (homozygous, TSPO-/-) mouse
  radiotracer observed in PET images: none
[4]; TSPO-/- mice
  ligand binding in PET/CT images: no ligand binding
[4]; TSPO-/- mice, any organs, cold PBR111 (1 mg/kg)
  specific binding from radioligand kinetics and displacement with cold PBR111: do not have specific binding
[4]; adrenal gland, kidney, liver and heart, TSPO knock-out mice (TSPO-/-)
  time course of radiotracer uptake: rapidly reaches the peak and then declines to the non-specific level
[5]; TSPO+/+ and TSPO+/- mice
  distribution of ligand binding in PET/CT images: in organs with known high TSPO expression, notably kidney and adrenal gland
[5]; TSPO+/+ and TSPO+/- mice, cold PBR111 (1 mg/kg)
  specific binding from radioligand kinetics and displacement with cold PBR111: indicates specific binding
[5]; adrenal gland, kidney and liver, wild-type mice (TSPO+/+), until PBR111 at 40 min
  time course of radiotracer uptake: slowly increases, but maintains a peak level
[5]; in vivo, validated against TSPO-/- null background
  selectivity for TSPO: high selectivity
[5]; wild-type mouse (TSPO+/+)
  intensity of radiotracer in PET images: high intensity

## PBR-111
[1]
  competitive binding: displacement of specific binding of [125I]CLINDE and [3H]PK11195 by unlabelled ligand: displaced
